According to paper PMC4501006, “Preliminary Characterization and In Vivo Studies of Structurally Identical ^18F- and ^125I-Labeled Benzyloxybenzenes for PET/SPECT Imaging of β-Amyloid Plaques” (Scientific Reports, 2015):

Key:
[1] = Dynamic microPET/CT imaging in normal ICR mice; format: in vivo; conditions: for brain radioactivity retention from PET time-activity curve: at 60 min; for muscle and bone uptake, standardized uptake value (SUV): entire 60 min PET scan
Method: To further assess the pharmacokinetics of these two couple of radiolabeled benzyloxybenzenes, following dynamic PET/CT and SPECT/CT scans were conducted in normal ICR mice. High contrast PET and SPECT images implied that all the four radiolabeled benzyloxybenzenes can penetrate the BBB to a great degree and washout from the normal brain regions (Fig. 7a). […] Sustained low muscle and bone uptakes were observed during the entire 60 min scans with standardized uptake values (SUV) of approximate 0.7. […] These PET imaging data well matched the in vivo biodistribution results.
Four normal ICR mice (20–22 g, male) were used for dynamic microPET/CT and microSPECT/CT imaging. The whole-body PET/CT scans were performed using Siemens Inveon device (Siemens Medical Solutions), while SPECT/CT scans were conducted with Mediso nanoScan SPECT/CT scanner (Mediso Medical Imaging System). All mice were anesthetized with 2% isoflurane. Dynamic PET and SPECT scans from 0 to 60 min were started immediately after intravenous injection of [^18F]7a (injected dose, 2.2 MBq), [^18F]12a (injected dose, 4.1 MBq), [^125I]7a (injected dose, 25 MBq), and [^125I]12a (injected dose, 48 MBq), respectively. PET images were reconstructed using three-dimensional ordered subsets expectation maximization (3D OSEM) algorithm, and 3D iterative algorithm was used for SPECT image reconstruction. Time frames for PET imaging were 20 × 60 s and 10 × 240 s, and that for SPECT imaging were 20 × 180 s. Regions of interests (ROIs) were manually drawn on the whole brain, heart, liver, muscle and bone using the CT templates and then transferred to corresponding coregistered PET images. SUVs, injected dose and body weight normalized and decay corrected radioactivity concentration, were calculated for all ROIs. TACs were calculated from this.

Aβ plaques = Aβ plaques (Homo sapiens, UniProt P05067); experiment: Ex vivo autoradiography and brain radioactivity retention, Tg versus wild-type mouse; format: in vivo, Tg mouse (APPswe/PSEN1); conditions: 30 min post-injection
Method: To further characterize the in vivo Aβ imaging capabilities, we conducted ex vivo autoradiographic studies with [^125I]7a which combined high binding affinity, high initial brain uptake, fast clearance and excellent in vivo biostability in the brain. [^125I]7a (1 mCi, 200 μL) was injected intravenously into a Tg mouse (APPswe/PSEN1, male, 27 months old) and an age-matched wild-type mouse (C57BL6, male). Thirty minutes after injection, the brains were removed, weighed and the radioactivity was counted. Then the brains were frozen and sectioned for ex vivo autoradiography. […] Ex vivo autoradiography was performed on a transgenic mouse (APPswe/PSEN1, male, 27 months old) and a wild-type mouse (C57BL6, male, 27 months old). A saline solution (200 μL, 10% EtOH) of 1 mCi of [^125I]7a was injected into the mice via the tail vein. The mice were sacrificed by decapitation at 30 min post-injection, and the brains were immediately removed, weighed and the radioactivity was counted. Frozen brain sections of 20 μm were cut and exposed to a phosphorus plate (Perkin-Elmer, USA) for one week. Ex vivo autoradiographic images were obtained using a phosphor imaging system (Cyclone, Packard). Subsequently the same sections were stained with ThS to confirm the presence and location of Aβ plaques.

Aβ plaques, sequence (P05067 672-711 limits assumed): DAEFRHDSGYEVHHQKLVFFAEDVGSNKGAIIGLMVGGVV

| Compound | brain uptake from PET time-activity curve ([1]; at 8 min) | brain radioactivity retention from PET time-activity curve [1] | muscle and bone uptake, standardized uptake value (SUV) [1] | brain uptake from PET time-activity curve ([1]; at 7 min) | higher brain radioactivity retention in Tg mouse than in wild-type control mouse (Aβ plaques; i.v., 1 mCi) | ex vivo autoradiography, labeling of Aβ plaques (Aβ plaques; Tg mouse brain sections) |
| --- | --- | --- | --- | --- | --- | --- |
| [18F]CCOc1ccc(OCc2ccc(I)cc2)cc1 [[^18F]7a] | 5.96 % ID/g | 3.08 % ID/g | ~0.7 |  |  |  |
| [18F]CCOc1ccc(COc2ccc(I)cc2)cc1 [[^18F]12a] |  | 3.47 % ID/g | ~0.7 | 6.74 % ID/g |  |  |
| FCCOc1ccc(OCc2ccc([125I])cc2)cc1 [[^125I]7a] |  |  |  |  | 40% | clear labeling of Aβ plaques in the Tg mouse brain |
